Results taken from patent US20140315973A1, “PARP-1 INHIBITORS” (priority 2010, published 2014).

Experiments:
[1] = system: HBV; test: HBV transcripts in HepG2 cells transfected with HBV-RFP; format: cell-based, HBV genotype A; details: 15 μM, added 24 hours after transfection, 48 hours later
Source text: Full-length replicative HBV genotype A (approximately 1.1X HBV genome starting from nucleotide 1535, ending at nucleotide 1930) driven by its own core promoter cloned from another construct and inserted into pcDNA3.1+ via the MfeI and MluI restriction sites, […] of the CMV promoter. Primers used are as follows: […]
(§1) The coding sequence for red fluorescent protein (RFP) was cut from the pTurboFP635N (Evrogen) and inserted into the pcDNA3.1+ vector containing the HBV construct into the MCS via KpnI and NotI sites.

[2] = system: HepG2 cells; test: Viable HBV-RFP transfected HepG2 cells; format: cell-based; details: 15 μM, 72 hours after PARP inhibition
Source text: as §1

[3] = system: breast or ovarian cancer; details: cited from earlier work
[4] = system: HBV core promoter; test: Dual-luciferase reporter assay of HBV core promoter; format: cell-based, HBV genotype A
Source text: The HBV core promoter deletions were cloned using a multi-step strategy. First, the wild-type core promoter from HBV genotype A was inserted via KpnI and HindIII sites on the PGL3 Basic vector. Using this as the template, PGLF (5′ TCCCCAGTGCAAGTGCAGG) was used with reverse primer BX, where “X” denotes the deletion number and contains the nucleotide sequence flanking the 3′ end of the deletion. This amplifies the 5′ half of mutant core promoter. Primer CX containing nucleotide sequences flanking the 5′ end of the deletion site was then used with reverse primer PGLR (5′ […]) to synthesize the 3′ end of the mutant promoter. The 2 halves were annealed via their complementary sequences and amplified using primers PGLF and PGLR. PCR was performed using the Expand High Fidelity PCR System (Roche), and ran on 1% agarose gels in TBE buffer. DNA of appropriate sizes were extracted using the Qiaquick Gel Extraction Kit (Qiagen), double-digested with enzymes from New England BioLabs, then annealed using the Quick Ligation Kit.
Assays were performed with the Dual-Luciferase® Reporter Assay System (Promega) with modifications. HepG2 cells were seeded 18 hours prior to transfection in 24-well plates in triplicates at a density of 1.5×10^5 cells per well. Transfection was performed with 2.2 μl Lipofectamine 2000 (Invitrogen), 1 μg of PGL3 Basic construct plasmid and 15 ng of Renilla-luciferase construct per well. Additionally, 250 ng of over-expression plasmids for PARP-1 mutants were used when indicated. Transfected cells were lysed with 60 μl lysis buffer at 37° C. on a shaking incubator for 20 minutes after washing thrice with ice-cold PBS 30 hours post-transfection and 50 μl of the lysate was transferred on ice into black 96-well plates with clear bottoms (Corning), and luminescence measured with the GloMax® Multi-Microplate Multimode Reader (Promega).

## CN(C)CC(=O)Nc1ccc2[nH]c(=O)c3ccccc3c2c1 [PJ-34]
[1]
  increase in relative amounts of HBV transcripts: more than 3 fold
[2]
  relative percentage of viable cells that were HBV-transfected vs DMSO control: significantly higher

## O=C(c1cc(Cc2n[nH]c(=O)c3ccccc23)ccc1F)N1CCN(C(=O)C2CC2)CC1 [olaparib]
[3]; 60 patients, including 22 BRCA mutation carriers
  durable objective antitumor activity: observed only in confirmed carriers of a BRCA1 or BRCA2 mutation
[3]; Twelve of 19 BRCA carriers
  BRCA carriers with ovarian, breast, or prostate cancers showing a clinical benefit: 63%
[3]; phase 1, orally active
  side-effect profile: acceptable side-effect profile

## NC(=O)c1cccc(N)c1 [3-AB, 3-aminobenzamide]
[4]; HepG2, inhibitor added 24 hours after transfection
  transcription (luciferase expression) at wild-type HBV core promoter: increased transcription at the HBV core promoter in a dose-dependent manner
[4]; HepG2 and Huh-7
  luciferase expression, mutant HBV core promoter with deletion of the PARP-1 binding site (Del-PARP1 motif): negligible effect
[4]; Huh-7
  luciferase expression, wild-type HBV core promoter: increased luciferase expression
